Measured values reported in ChEMBL document CHEMBL1909046, “DrugMatrix in vitro pharmacology data”.

How the values were obtained:
[1] = DRUGMATRIX: Tumor Necrosis Factor (TNF), Non-Selective radioligand binding (ligand: [125I] TNF-alpha); type: cell membranes, Membrane; conditions: u-937; Not Active = under 50% inhibition at 10 µM
[2] = molecular target: Histamine H2 receptor (Homo sapiens, UniProt P25021); type: cell membranes, CHO-K1, Membrane; further: in other assays of this panel Not Active means under 50% inhibition at 10 µM
Chain of Histamine H2 receptor (P25021 whole entry): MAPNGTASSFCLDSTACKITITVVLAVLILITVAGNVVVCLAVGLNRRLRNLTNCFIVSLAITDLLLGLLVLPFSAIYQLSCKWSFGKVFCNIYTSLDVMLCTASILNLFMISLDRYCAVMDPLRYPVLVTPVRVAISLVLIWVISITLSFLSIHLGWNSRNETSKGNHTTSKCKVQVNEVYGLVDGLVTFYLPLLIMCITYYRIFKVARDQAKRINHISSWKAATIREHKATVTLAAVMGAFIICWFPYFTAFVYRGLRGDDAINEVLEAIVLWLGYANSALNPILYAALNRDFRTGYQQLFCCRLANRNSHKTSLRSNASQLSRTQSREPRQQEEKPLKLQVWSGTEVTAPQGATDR

[3] = molecular target: T1, Adenosine receptor A3 (Homo sapiens, UniProt P0DMS8); type: cell membranes, CHO-K1, Membrane;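 further: radioligand binding assay with AB-MECA serving as the labeled ligand; in other assays of this panel Not Active means under 50% inhibition at 10 µM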
T1 sequence (P0DMS8 whole entry): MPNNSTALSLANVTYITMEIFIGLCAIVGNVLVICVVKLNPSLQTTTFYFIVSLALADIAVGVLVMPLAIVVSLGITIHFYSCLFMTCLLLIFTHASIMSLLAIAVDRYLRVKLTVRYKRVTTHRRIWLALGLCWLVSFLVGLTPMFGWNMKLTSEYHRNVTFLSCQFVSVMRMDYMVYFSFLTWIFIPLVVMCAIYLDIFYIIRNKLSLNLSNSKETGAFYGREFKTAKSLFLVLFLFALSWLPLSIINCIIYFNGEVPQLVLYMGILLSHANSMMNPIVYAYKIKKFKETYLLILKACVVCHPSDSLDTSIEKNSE

[4] = molecular target: Epidermal growth factor receptor (Homo sapiens, UniProt P00533); assay: DRUGMATRIX: Protein Tyrosine Kinase, EGF Receptor enzyme inhibition (substrate: Poly(Glu:Tyr)); type: cell-based, Insect cells; conditions: insect cells; Not Active = under 50% inhibition at 10 µM
[5] = molecular target: T2, Muscarinic acetylcholine receptor M2 (Homo sapiens, UniProt P08172); type: cell membranes, CHO-K1, Membrane; conditions: cho-k1; further: in other assays of this panel Not Active means under 50% inhibition at 10 µM
T2 sequence (P08172 whole entry): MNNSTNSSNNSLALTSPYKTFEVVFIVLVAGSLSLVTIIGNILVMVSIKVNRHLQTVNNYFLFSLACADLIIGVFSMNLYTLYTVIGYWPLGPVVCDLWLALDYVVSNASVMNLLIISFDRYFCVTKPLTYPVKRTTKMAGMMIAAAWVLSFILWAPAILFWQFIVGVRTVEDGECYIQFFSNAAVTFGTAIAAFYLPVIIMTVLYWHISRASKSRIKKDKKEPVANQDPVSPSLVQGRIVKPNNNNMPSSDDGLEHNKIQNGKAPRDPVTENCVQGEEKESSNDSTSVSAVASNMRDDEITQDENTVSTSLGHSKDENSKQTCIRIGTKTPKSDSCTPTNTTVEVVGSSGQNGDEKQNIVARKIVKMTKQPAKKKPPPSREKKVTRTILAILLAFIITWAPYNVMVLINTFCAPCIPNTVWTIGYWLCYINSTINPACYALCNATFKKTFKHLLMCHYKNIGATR

[6] = molecular target: T3, Receptor-type tyrosine-protein phosphatase C (Homo sapiens, UniProt P08575); parameters: species or system Escherichia coli;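 further: inhibition of CD45 enzyme activity measured using DiFMUP as substrate; in other assays of this panel Not Active means under 50% inhibition at 10 µM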
T3 sequence (P08575 whole entry): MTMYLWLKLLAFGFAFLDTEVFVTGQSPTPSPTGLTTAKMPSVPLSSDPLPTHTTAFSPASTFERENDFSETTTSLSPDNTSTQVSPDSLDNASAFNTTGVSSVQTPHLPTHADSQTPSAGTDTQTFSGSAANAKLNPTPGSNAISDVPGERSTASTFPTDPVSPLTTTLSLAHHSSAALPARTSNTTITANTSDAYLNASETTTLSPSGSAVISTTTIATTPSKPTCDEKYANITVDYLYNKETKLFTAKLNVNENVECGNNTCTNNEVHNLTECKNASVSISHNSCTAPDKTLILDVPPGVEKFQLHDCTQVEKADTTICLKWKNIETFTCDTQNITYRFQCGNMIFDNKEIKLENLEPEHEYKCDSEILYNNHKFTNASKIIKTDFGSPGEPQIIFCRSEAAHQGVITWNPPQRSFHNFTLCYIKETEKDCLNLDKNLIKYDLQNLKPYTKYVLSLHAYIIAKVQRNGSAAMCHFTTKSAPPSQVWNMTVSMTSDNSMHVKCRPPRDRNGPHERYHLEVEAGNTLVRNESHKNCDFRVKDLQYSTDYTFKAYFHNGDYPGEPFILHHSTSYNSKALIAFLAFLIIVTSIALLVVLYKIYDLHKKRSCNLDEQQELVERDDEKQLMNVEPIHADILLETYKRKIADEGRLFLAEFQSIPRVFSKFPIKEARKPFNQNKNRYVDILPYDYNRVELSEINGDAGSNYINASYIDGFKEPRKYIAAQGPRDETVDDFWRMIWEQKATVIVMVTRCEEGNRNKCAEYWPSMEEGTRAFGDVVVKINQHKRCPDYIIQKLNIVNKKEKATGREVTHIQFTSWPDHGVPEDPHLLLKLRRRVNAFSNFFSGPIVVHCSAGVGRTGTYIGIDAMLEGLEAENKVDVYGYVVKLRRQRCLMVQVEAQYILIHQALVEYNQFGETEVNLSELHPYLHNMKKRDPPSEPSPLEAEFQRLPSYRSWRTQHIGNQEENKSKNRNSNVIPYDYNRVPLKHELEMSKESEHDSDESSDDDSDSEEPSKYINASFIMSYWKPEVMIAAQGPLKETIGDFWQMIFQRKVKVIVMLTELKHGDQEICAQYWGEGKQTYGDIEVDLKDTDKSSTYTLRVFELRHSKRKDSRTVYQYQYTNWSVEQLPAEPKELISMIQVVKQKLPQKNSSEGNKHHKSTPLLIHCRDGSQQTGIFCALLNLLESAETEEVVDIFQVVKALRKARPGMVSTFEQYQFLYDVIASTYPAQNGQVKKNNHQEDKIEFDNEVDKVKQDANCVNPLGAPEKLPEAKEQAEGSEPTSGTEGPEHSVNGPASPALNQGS

Row | Compound | IC50 [1] | Ki [1] | IC50 ([2]; read-out: IC50) | Ki ([2]; read-out: Ki) | IC50 ([3]; cho-k1) | IC50 [4] | IC50 [5] | IC50 [6] | IC50 ([2]; cho-k1) | Ki ([2]; cho-k1) | Ki ([3]; cho-k1) | Ki [4] | Ki [5] | Ki [6] | IC50 ([3]; read-out: IC50) | Ki ([3]; read-out: Ki)
1 | CC(=O)O[C@]1(C(C)=O)CC[C@H]2[C@@H]3C[C@H](C)C4=CC(=O)CC[C@]4(C)[C@H]3CC[C@@]21C [MEDROXYPROGESTERONE ACETATE] | Not Active | Not Active | 27.9 µM | 27.5 µM | Not Active | Not Active | Not Active | Not Active |  |  |  |  |  |  |  | 
2 | CCN1CCCC1CNC(=O)c1cc(S(N)(=O)=O)ccc1OC (stereo not drawn) [SULPIRIDE] | Not Active | Not Active |  |  | Not Active | Not Active | Not Active | Not Active | Not Active |  |  |  |  |  |  | 
3 | CC(O)C(=O)O (stereo not drawn) [LACTIC ACID] | Not Active | Not Active |  |  | Not Active | Not Active | Not Active | Not Active | Not Active |  |  |  |  |  |  | 
4 | CC(Cl)(Cl)Cl [TRICHLOROETHANE] | Not Active | Not Active |  |  | Not Active | Not Active | Not Active | Not Active | Not Active |  |  |  |  |  |  | 
5 | CCC(C)(C)C(=O)O[C@H]1C[C@@H](C)C=C2C=C[C@H](C)[C@H](CC[C@@H]3C[C@@H](O)CC(=O)O3)[C@H]21 [SIMVASTATIN] | Not Active | Not Active |  |  | Not Active | Not Active | Not Active | Not Active | Not Active |  |  |  |  |  |  | 
6 | Cc1ccnc(NS(=O)(=O)c2ccc(N)cc2)n1 [SULFAMERAZINE] | Not Active | Not Active |  |  | Not Active | Not Active | Not Active | Not Active | Not Active |  |  |  |  |  |  | 
7 | CCN(CC)N=O [N-NITROSODIETHYLAMINE] | Not Active | Not Active |  |  | Not Active | Not Active | Not Active | Not Active | Not Active |  |  |  |  |  |  | 
8 | CC#C[C@]1(O)CC[C@H]2[C@@H]3CCC4=CC(=O)CCC4=C3[C@@H](c3ccc(N(C)C)cc3)C[C@@]21C [MIFEPRISTONE] | Not Active | Not Active |  |  | Not Active | Not Active | Not Active | Not Active | Not Active |  |  |  |  |  |  | 
9 | LEAD(IV) ACETATE | Not Active | Not Active |  |  | Not Active | Not Active | Not Active | Not Active | Not Active | Not Active | Not Active | Not Active | Not Active | Not Active |  | 
10 | O=C(OC[C@H]1O[C@@H](OC(=O)c2cc(O)c(O)c(OC(=O)c3cc(O)c(O)c(O)c3)c2)[C@H](OC(=O)c2cc(O)c(O)c(OC(=O)c3cc(O)c(O)c(O)c3)c2)[C@@H](OC(=O)c2cc(O)c(O)c(OC(=O)c3cc(O)c(O)c(O)c3)c2)[C@@H]1OC(=O)c1cc(O)c(O)c(OC(=O)c2cc(O)c(O)c(O)c2)c1)c1cc(O)c(O)c(OC(=O)c2cc(O)c(O)c(O)c2)c1 [TANNIC ACID] | Not Active | Not Active |  |  | Not Active | Not Active | Not Active | Not Active | Not Active |  |  |  |  |  |  | 
11 | Oc1ccc(/C=C/c2cc(O)cc(O)c2)cc1 [RESVERATROL] | Not Active | Not Active |  |  | Not Active | Not Active | Not Active | Not Active | Not Active |  |  |  |  |  |  | 
12 | CC[C@@]1(O)C(=O)OCc2c1cc1n(c2=O)Cc2cc3c(CN(C)C)c(O)ccc3nc2-1 [TOPOTECAN] | Not Active | Not Active |  |  | Not Active | Not Active | Not Active | Not Active | Not Active |  |  |  |  |  |  | 
13 | C=CCc1ccc2c(c1)OCO2 [SAFROLE] | Not Active | Not Active |  |  | Not Active | Not Active | Not Active | Not Active | Not Active |  |  |  |  |  |  | 
14 | C1CCN2C[C@@H]3C[C@@H](CN4CCCC[C@@H]34)[C@H]2C1 [SPARTEINE] | Not Active | Not Active |  |  | Not Active | Not Active | Not Active | Not Active | Not Active |  |  |  |  |  |  | 
15 | CC[C@H](C)C(=O)O[C@H]1CCC=C2C=C[C@H](C)[C@H](CC[C@@H]3C[C@@H](O)CC(=O)O3)[C@H]21 [MEVASTATIN] | Not Active | Not Active |  |  | Not Active | Not Active | Not Active | Not Active | Not Active |  |  |  |  |  |  | 
16 | CS(=O)(=O)c1ccc(C2=C(c3ccccc3)C(=O)OC2)cc1 [ROFECOXIB] | Not Active | Not Active |  |  | Not Active | Not Active | Not Active | Not Active | Not Active |  |  |  |  |  |  | 
17 | Cc1cn([C@H]2C=C[C@@H](CO)O2)c(=O)[nH]c1=O [STAVUDINE] | Not Active | Not Active |  |  | Not Active | Not Active | Not Active | Not Active | Not Active |  |  |  |  |  |  | 
18 | Nc1nc(N)c2nc(-c3ccccc3)c(N)nc2n1 | Not Active | Not Active |  |  | Not Active | Not Active | Not Active | Not Active | Not Active |  |  |  |  |  |  | 
19 | Cc1[nH]c(=O)c(C#N)cc1-c1ccncc1 [MILRINONE] | Not Active | Not Active |  |  | Not Active | Not Active | Not Active | Not Active | Not Active |  |  |  |  |  |  | 
20 | C[C@]12CCC(=O)C[C@@H]1CC[C@@H]1[C@@H]2CC[C@]2(C)[C@@H](O)CC[C@@H]12 [STANOLONE] | Not Active | Not Active |  |  | Not Active | Not Active | Not Active | Not Active | Not Active |  |  |  |  |  |  | 
21 | CC1(C)[C@H](C(=O)O)N2C(=O)C[C@H]2S1(=O)=O [SULBACTAM] | Not Active | Not Active |  |  | Not Active | Not Active | Not Active | Not Active | Not Active |  |  |  |  |  |  | 
22 | CCOC(=O)C1=C(C)NC(C)=C(C(=O)OCC)C1c1ccccc1/C=C/C(=O)OC(C)(C)C [LACIDIPINE] | Not Active | Not Active |  |  |  | Not Active | Not Active | Not Active | Not Active |  |  |  |  |  | 4.04 µM | 2.28 µM
23 | CC(N)C12CC3CC(CC(C3)C1)C2 (stereo not drawn) [RIMANTADINE] | Not Active | Not Active |  |  | Not Active | Not Active | Not Active | Not Active | Not Active |  |  |  |  |  |  | 
